Measured values as given in PubChem BioAssay AID328 (DTP/NCI, 2004).
Where “and” joins values, the source holds several entries; their conditions need not be identical. Equal values may be shown once. Toxic doses and inconclusive results are not listed. How the source made its calls: active means survival T/C of 150% or more; inactive means T/C below 125% in these data.

Tested on: BDF1 mice, P388 leukemia ip, median survival T/C
Assay: NCI In Vivo Anticancer Drug Screen. Data for tumor model P388 Leukemia (intraperitoneal) in B6D2F1 (BDF1) mice
Conditions: endpoint: median survival time, higher = longer survival
Procedure, shortened: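 Transplantable tumour in mice; compound vs vehicle dosing; survival scored; ratio of treated to control reported.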

[1] = dose: 25.0 mg/kg/injection, schedule: Q01DX009 (ip), vehicle: saline
[2] = dose: 50.0 mg/kg/injection, schedule: Q01DX009 (ip), vehicle: saline with Tween-80
[3] = dose: 100.0 mg/kg/injection, schedule: Q01DX009 (ip), vehicle: saline with Tween-80
[4] = dose: 200.0 mg/kg/injection, schedule: Q01DX009 (ip), vehicle: saline with Tween-80
[5] = dose: 100.0 mg/kg/injection, schedule: Q04DX003 (ip), vehicle: saline
[6] = dose: 200.0 mg/kg/injection, schedule: Q04DX003 (ip), vehicle: saline
[7] = dose: 50.0 mg/kg/injection, schedule: Q04DX003 (ip), vehicle: saline with Tween-80
[8] = dose: 100.0 mg/kg/injection, schedule: Q04DX003 (ip), vehicle: saline with Tween-80
[9] = dose: 200.0 mg/kg/injection, schedule: Q04DX003 (ip), vehicle: saline with Tween-80
[10] = dose: 400.0 mg/kg/injection, schedule: Q04DX003 (ip), vehicle: saline with Tween-80
[11] = dose: 200.0 mg/kg/injection, schedule: Q01DX009 (ip), vehicle: Klucel (hydroxypropylcellulose) (HPC)
[12] = dose: 50.0 mg/kg/injection, schedule: Q04DX003 (ip), vehicle: saline

Measured: T/C

CCOC1CC(C)C(C=O)C(C#N)(C#N)C1(C#N)C#N (stereo not given)
inactive: dose: 12.5 mg/kg/injection, schedule: Q01DX001 (ip), vehicle: saline with Tween-80 100 % of control | dose: 25.0 mg/kg/injection, schedule: Q01DX001 (ip), vehicle: saline with Tween-80 109 % of control | dose: 50.0 mg/kg/injection, schedule: Q01DX001 (ip), vehicle: saline with Tween-80 106 % of control

CC1(C)N=C(N)N=C(N)N1c1ccccc1
inactive: dose: 12.5 mg/kg/injection, schedule: Q01DX009 (ip), vehicle: saline 118 % of control | [1] 113 % of control | dose: 50.0 mg/kg/injection, schedule: Q01DX009 (ip), vehicle: saline 118 % of control

COC(=O)c1c2ccccc2cn1Cc1ccccc1
inactive: dose: 25.0 mg/kg/injection, schedule: Q01DX009 (ip), vehicle: saline with Tween-80 89 % of control | [2] 90 % of control and 93 % of control | [3] 100 % of control | [4] 100 % of control

CC(c1ccccc1)c1ccc(O)cc1 (stereo not given)
inactive: [2] 110 % of control | [3] 110 % of control | [5] 100 % of control | [4] 110 % of control | [6] 91 % of control

CCCSCCSCCC
inactive: dose: 25.0 mg/kg/injection, schedule: Q04DX003 (ip), vehicle: saline with Tween-80 100 % of control | [7] 109 % of control | [8] 113 % of control

C=CCOc1ccccn1
inactive: [7] 90 % of control | [8] 104 % of control | [9] 113 % of control

CCC(c1ccccc1)C(C(=O)O)C(=O)O (stereo not given)
inactive: dose: 100.0 mg/kg/injection, schedule: Q04DX002 (ip), vehicle: saline with Tween-80 110 % of control | dose: 200.0 mg/kg/injection, schedule: Q04DX002 (ip), vehicle: saline with Tween-80 101 % of control | dose: 400.0 mg/kg/injection, schedule: Q04DX002 (ip), vehicle: saline with Tween-80 103 % of control

O=C(COc1ccccc1[N+](=O)[O-])Nc1cccnc1
inactive: [8] 100 % of control | [9] 95 % of control | [10] 100 % of control

CN1CCc2cc3c(cc2/C1=C1\OC(=O)c2c1ccc1c2OCO1)OCO3
inactive: [8] 88 % of control | [9] 93 % of control | [10] 101 % of control

OC(O)C(F)(F)F
inactive: dose: 15.0 mg/kg/injection, schedule: Q04DX003 (ip), vehicle: saline with Tween-80 100 % of control | dose: 30.0 mg/kg/injection, schedule: Q04DX003 (ip), vehicle: saline with Tween-80 100 % of control | dose: 60.0 mg/kg/injection, schedule: Q04DX003 (ip), vehicle: saline with Tween-80 95 % of control | [8] 104 % of control | [9] 113 % of control | [10] 104 % of control

CN1CCC2=C(C1)C(c1ccccc1)c1ccccc12 (stereo not given)
inactive: [1] 106 % of control

Brc1ccc(C[N+]23CN4CN(CN(C4)C2)C3)cc1
inactive: dose: 100.0 mg/kg/injection, schedule: Q01DX009 (ip), vehicle: saline 115 % of control | [5] 118 % of control | dose: 132.0 mg/kg/injection, schedule: Q01DX009 (ip), vehicle: saline with Tween-80 107 % of control and 108 % of control | dose: 200.0 mg/kg/injection, schedule: Q01DX009 (ip), vehicle: saline 90 % of control | [6] 122 % of control

CC(=O)Nc1cccc(Cl)c1C
inactive: dose: 8.25 mg/kg/injection, schedule: Q01DX009 (ip), vehicle: saline with Tween-80 100 % of control | dose: 12.4 mg/kg/injection, schedule: Q01DX009 (ip), vehicle: saline with Tween-80 104 % of control | dose: 18.7 mg/kg/injection, schedule: Q01DX009 (ip), vehicle: saline with Tween-80 100 % of control | dose: 28.2 mg/kg/injection, schedule: Q01DX009 (ip), vehicle: saline with Tween-80 100 % of control | dose: 50.0 mg/kg/injection, schedule: Q01DX009 (ip), vehicle: Klucel (hydroxypropylcellulose) (HPC) 100 % of control | [2] 100 % of control | dose: 100.0 mg/kg/injection, schedule: Q01DX009 (ip), vehicle: Klucel (hydroxypropylcellulose) (HPC) 100 % of control | [8] 95 % of control | [11] 86 % of control | [9] 100 % of control | [10] 100 % of control

CCO/C=C(\C#N)C(=O)O
inactive: [8] 88 % of control | [4] 111 % of control | [9] 88 % of control | dose: 400.0 mg/kg/injection, schedule: Q01DX009 (ip), vehicle: saline with Tween-80 119 % of control | [10] 92 % of control

CCOC(=O)c1oc2ccccc2c1CN
inactive: [2] 107 % of control | [3] 107 % of control

O=C(NNc1ccc(F)cc1)C12CC3CC(CC(C3)C1)C2
inactive: [2] 104 % of control

COC(=O)C1=C(C)NC(=O)NC1c1ccccc1 (stereo not given)
inactive: dose: 100.0 mg/kg/injection, schedule: Q01DX001 (ip), vehicle: saline with Tween-80 100 % of control | dose: 200.0 mg/kg/injection, schedule: Q01DX001 (ip), vehicle: saline with Tween-80 100 % of control | dose: 400.0 mg/kg/injection, schedule: Q01DX001 (ip), vehicle: saline with Tween-80 100 % of control

CC(C)(C)OC(=O)NC(Cc1cncn1Cc1ccccc1)C(=O)NC(Cc1c[nH]c2ccccc12)C(=O)OCc1ccccc1 (stereo not given)
inactive: [12] 105 % of control | [5] 106 % of control | [6] 102 % of control | dose: 400.0 mg/kg/injection, schedule: Q04DX003 (ip), vehicle: saline 100 % of control

C[n+]1c(-c2ccc(Cl)cc2Cl)c2cc(N)ccc2c2ccccc21
inactive: dose: 0.09 mg/kg/injection, schedule: Q01DX009 (ip), vehicle: water 98 % of control | dose: 0.19 mg/kg/injection, schedule: Q01DX009 (ip), vehicle: water 90 % of control | dose: 0.39 mg/kg/injection, schedule: Q01DX009 (ip), vehicle: water 98 % of control | dose: 0.78 mg/kg/injection, schedule: Q01DX009 (ip), vehicle: water 98 % of control | dose: 1.56 mg/kg/injection, schedule: Q01DX009 (ip), vehicle: water 102 % of control and 120 % of control | dose: 3.12 mg/kg/injection, schedule: Q01DX009 (ip), vehicle: water 98 % of control and 112 % of control

[Se]c1ccnc([Se])n1
inactive: [7] 100 % of control | [8] 90 % of control | [9] 100 % of control

Cc1cc(C(C)(C)CC(C)(C)C)ccc1O
inactive: dose: 88.0 mg/kg/injection, schedule: Q01DX009 (sc), vehicle: olive oil, sesame oil, peanut oil 100 % of control | dose: 100.0 mg/kg/injection, schedule: Q01DX009 (sc), vehicle: olive oil, sesame oil, peanut oil 100 % of control | dose: 100.0 mg/kg/injection, schedule: Q04DX003 (sc), vehicle: olive oil, sesame oil, peanut oil 91 % of control | dose: 133.0 mg/kg/injection, schedule: Q01DX009 (sc), vehicle: olive oil, sesame oil, peanut oil 92 % of control | dose: 200.0 mg/kg/injection, schedule: Q01DX009 (sc), vehicle: olive oil, sesame oil, peanut oil 86 % of control | dose: 200.0 mg/kg/injection, schedule: Q04DX003 (sc), vehicle: olive oil, sesame oil, peanut oil 100 % of control | dose: 300.0 mg/kg/injection, schedule: Q01DX009 (sc), vehicle: olive oil, sesame oil, peanut oil 106 % of control | dose: 400.0 mg/kg/injection, schedule: Q01DX009 (sc), vehicle: olive oil, sesame oil, peanut oil 110 % of control | dose: 400.0 mg/kg/injection, schedule: Q04DX003 (sc), vehicle: olive oil, sesame oil, peanut oil 104 % of control

COc1ccc(CC2c3ccccc3CC[N+]2(C)C)cc1Oc1ccc(CC2c3ccccc3CC[N+]2(C)C)cc1 (stereo not given)
inactive: dose: 0.39 mg/kg/injection, schedule: Q04DX003 (ip), vehicle: saline 98 % of control | dose: 0.78 mg/kg/injection, schedule: Q04DX003 (ip), vehicle: saline 105 % of control | dose: 1.56 mg/kg/injection, schedule: Q04DX003 (ip), vehicle: saline with Tween-80 104 % of control

CCN(CC)c1cc(Cl)c(C=O)cc1Br
inactive: dose: 100.0 mg/kg/injection, schedule: Q04DX003 (ip), vehicle: Klucel (hydroxypropylcellulose) (HPC) 104 % of control | [11] 100 % of control | dose: 200.0 mg/kg/injection, schedule: Q04DX003 (ip), vehicle: Klucel (hydroxypropylcellulose) (HPC) 95 % of control | dose: 400.0 mg/kg/injection, schedule: Q01DX009 (ip), vehicle: Klucel (hydroxypropylcellulose) (HPC) 95 % of control | dose: 400.0 mg/kg/injection, schedule: Q04DX003 (ip), vehicle: Klucel (hydroxypropylcellulose) (HPC) 100 % of control

CCCCCCCCCC(=O)CCCCC
inactive: dose: 100.0 mg/kg/injection, schedule: Q04DX003 (ip), vehicle: other 109 % of control | dose: 200.0 mg/kg/injection, schedule: Q04DX003 (ip), vehicle: other 109 % of control | dose: 400.0 mg/kg/injection, schedule: Q04DX003 (ip), vehicle: other 113 % of control

O=CC(Cl)Cl
inactive: dose: 25.0 mg/kg/injection, schedule: Q04DX003 (ip), vehicle: saline 100 % of control | [12] 95 % of control | [5] 100 % of control
